# Assay results reported in patent publication US8377663B2, “Cosmetic composition comprising hydroxymethionine and 3-aminopropanesulfonic acid” (Sederma, S.A.S., priority 2007, dated 2013).
# Marks after values point to notes of the source that are not given here.
# What was measured:
# filaggrin = experiment: Filaggrin synthesis by keratinocytes (fluorescence-image analysis); format: cell-based, human; conditions: for Filaggrin synthesis, Fluorescence, result per 106 cells: Table 2, HaCat; for Filaggrin synthesis, Fluorescence, result per 106 cells / Filaggrin synthesis, Fluorescence: calcium-deficient medium; for Filaggrin synthesis, Fluorescence, result per 106 cells / Filaggrin synthesis, Fluorescence / increase in filaggrin synthesis on the control value: 14 days; for Filaggrin synthesis, Fluorescence: Table 3, HaCat
# Description: HaCat cells were cultured to confluence, in a deficient medium in calcium, in the presence or absence of hydroxymethionine-Ca for 14 days. The culture period was rather long in order to enable the keratinocytes to pursue differentiation up to a rather late stage in order to detect the emergence of filaggrin. Quantification was conducted by fluorescence-image analysis after labeling filaggrin with a specific probe (polyclonal antibody, Santa-Cruz). […]
# transglutaminase = experiment: Transglutaminase mRNA by quantitative RT-PCR; format: cell-based, human; conditions: 8 days; for Transglutaminase mRNA, Ct, result per 106 cells: HaCat
# Description: HaCat cells were cultured in the presence or absence of hydroxymethionine-Ca for 8 days. The quantitative RT-PCR method used on the mRNA for transglutaminase is sensitive and yielded results as of 8 days of culture. Quantification consisted in analysis of the cycle threshold (Ct) parameter, which reflects the amplification power used to obtain a detectable signal.
# Amplification is exponantial and of order 1.7 (recopying effectiveness for each cycle).
# keratin K10 = experiment: Synthesis of keratin 10 by keratinocytes (fluorescence image analysis); format: cell-based, human; conditions: 14 days; for Synthesis of keratin 10, Fluorescence: HaCat, calcium-poor medium
# Description: HaCat cells were cultured in the presence or absence of hydroxymethionine-Ca, 3-aminopropanesulfonic Acid alone, and both compounds in a calcium-poor culture medium for 14 days. The incubation time was rather long to enable the keratinocytes to pursue differentiation up to a late stage, thus enabling detection of the emergence of keratin K10. Quantification was conducted by fluorescence image analysis using 1 specific fluorescent probe (anti-keratin monoclonal antibody (Monosan) for keratin K10).
# HaCat cells = experiment: Intracellular lipid synthesis (red oil staining of lipid vesicles); format: cell-based, human; conditions: 14 days; for Formation of lipid vesicles, Red-oil staining, result per 106 cells: HaCat
# Description: The intracellular lipid vesicles characterize a late phase of differentiation. HaCat cells were cultured in the presence or absence of hydroxymethionine-Ca for 14 days. The incubation duration was rather long in order to enable the keratinocytes to pursue differentiation up to a relatively late stage.
# Quantification was conducted by image analysis after red oil staining of the lipid vesicles.
# Keratinocytes = experiment: Osmolar protection: cell vitality by MTT after hyperosmotic stress; format: cell-based; conditions: D-Sorbitol 200 mM, 0.06%
# Description: Keratinocytes were cultured in an appropriate culture medium. Then, cells were exposed to hyperosmolar shock induced by D-Sorbitol 200 mM. […] The osmoprotector effect of the products is estimated by quantifying the cellular survival. MTT Method is used: the measure of the survival is made at T0, T24 h and T48 h after the beginning of the stress. An analysis of the variances is realized on the data. In case of identity of the variances, a test of Student for matched series is then realized on the averages.
# [1] = tested on: Normal Human Keratinocyte (KHN) cells; experiment: Genes expression profile by DNA array on human keratinocyte culture; format: cell-based
# Description: The genes expression profile modulated by hydroxymethionine was studied on human keratinocyte culture, cultured in the presence or absence of hydroxymethionine-Ca by DNA array studies allowing the detection of the main genes.
# Normal Human Keratinocyte (KHN) cells were cultured to confluence before receiving 5×10E-3% hydroxymethionine or 5×10E-2% hydroxymethionine diluted in the culture medium. The negative controls are medium without hydroxymethionine. The KHN were incubated (37° C./5% CO2) at different times before that the culture was stopped to allow the extraction of the total RNA. Then, the quantitation of the mRNA of interest is allowed by the use of ADN biochip and quantified by means of software of interpretations of the fluorescent signals recorded by the sensors.
# [2] = tested on: Human HaCat keratinocytes; experiment: Stimulation of keratinocyte proliferation (Hoescht DNA labeling); format: cell-based; conditions: 14 days; for Keratinocyte proliferation vs. control cell proliferation: n = 3
# Description: The stimulation of cell growth can be readily measured by uptake of a fluorescent probe that intercalates between DNA bases (Hoescht method). There is a proportional relationship between the quantity of fluorescent DNA taken up and the number of cells. […] Cells and products were incubated during 14 days (37° C./5% CO2), the mediums being renewed at regular intervals. Then lawns were rinsed and broke before being labeled by means of the colouring agent inserting of the DNA HOESCHT 33258. The intensity of the labeling is proportional to the quantity of DNA of the cellular samples. A curve of calibration allows to correlate the intensity of the labeling to the number of cells.
# [3] = concentration 0.02% (mix: each)
# [4] = concentration 0.05% (mix: each)
smiles,measurement,setting,value
"CSCCC(O)C(=O)O (centres unmarked) [Hydroxymethionine-Ca (AHMC), 2-hydroxy-4-(thiomethyl)butanoic acid]","Filaggrin synthesis, Change (%) vs control","filaggrin; Table 2, 14 days, 0.015%",+379%
same,"Filaggrin synthesis, Change (%) vs control","filaggrin; Table 2, 14 days, 0.03%",+1072%
same,"Filaggrin synthesis, Change (%) vs control","filaggrin; Table 2, 14 days, 0.06%",+943%
same,"Filaggrin synthesis, Fluorescence, result per 106 cells",filaggrin; 0.015%,1.9 ± 1.4 arbitrary unit
same,"Filaggrin synthesis, Fluorescence, result per 106 cells",filaggrin; 0.03%,4.6 ± 3.1 arbitrary unit
same,"Filaggrin synthesis, Fluorescence, result per 106 cells",filaggrin; 0.06%,4.1 ± 3.5 arbitrary unit
same,"Filaggrin synthesis, Change (%) vs control","filaggrin; Table 3, 14 days, 0.02%",3.3 X
same,"Filaggrin synthesis, Change (%) vs control","filaggrin; Table 3, 14 days, 0.05%",3.4 X
same,"Filaggrin synthesis, Change (%) vs control","filaggrin; Table 3, 14 days, 0.06%",2.7 X
same,"Filaggrin synthesis, Fluorescence",filaggrin; 0.02%,5.0 arbitrary unit
same,"Filaggrin synthesis, Fluorescence",filaggrin; 0.05%,5.2 arbitrary unit
same,"Filaggrin synthesis, Fluorescence",filaggrin; 0.06%,4.2 arbitrary unit
same,increase in filaggrin synthesis on the control value,filaggrin; concentration equivalent to 0.06%,≤ 10 fold
same,increase in filaggrin synthesis on the control value,filaggrin; lowest concentration,3.7 fold
same,production of filaggrine,"filaggrin; used concentrations, 14 days after contact",strongly stimulates
same,"Transglutaminase mRNA, Change (%) vs control",transglutaminase; 0.015%,+322%*
same,"Transglutaminase mRNA, Change (%) vs control",transglutaminase; 0.03%,+661%*
same,"Transglutaminase mRNA, Change (%) vs control",transglutaminase; 0.06%,+814%*
same,increase in mRNA coding for transglutaminase,transglutaminase; dose-dependent,8 fold
same,"Transglutaminase mRNA, Ct, result per 106 cells",transglutaminase; 0.015%,23.7 ± 0.3 amplification unit
same,"Transglutaminase mRNA, Ct, result per 106 cells",transglutaminase; 0.03%,22.9 ± 0.1 amplification unit
same,"Transglutaminase mRNA, Ct, result per 106 cells",transglutaminase; 0.06%,22.5 ± 0.3 amplification unit
same,"Synthesis of keratin 10, Change vs control",keratin K10; 0.02%,X 45
same,"Synthesis of keratin 10, Change vs control",keratin K10; 0.05%,X 57
same,"Synthesis of keratin 10, Change vs control",keratin K10; 0.06%,X 44
same,"Synthesis of keratin 10, Fluorescence",keratin K10; 0.02%,4.0 arbitrary unit
same,"Synthesis of keratin 10, Fluorescence",keratin K10; 0.05%,5.1 +/− 1.3 arbitrary unit
same,"Synthesis of keratin 10, Fluorescence",keratin K10; 0.06%,3.9 +/− 1.7 arbitrary unit
same,"Formation of lipid vesicles, Change (%) vs control",HaCat cells; 0.015%,+77%
same,"Formation of lipid vesicles, Change (%) vs control",HaCat cells; 0.03%,+58%
same,"Formation of lipid vesicles, Change (%) vs control",HaCat cells; 0.06%,+66%
same,"Formation of lipid vesicles, Red-oil staining, result per 106 cells",HaCat cells; 0.015%,2.8 ± 0.3 arbitrary unit
same,"Formation of lipid vesicles, Red-oil staining, result per 106 cells",HaCat cells; 0.03%,2.5 ± 0.7 arbitrary unit
same,"Formation of lipid vesicles, Red-oil staining, result per 106 cells",HaCat cells; 0.06%,2.6 ± 0.6 arbitrary unit
same,Variation of the number of cells with regard to the control after a hyperosmotic stress (MTT),Keratinocytes; T0,+54%
same,Variation of the number of cells with regard to the control after a hyperosmotic stress (MTT),Keratinocytes; T24 h,+108%
same,Variation of the number of cells with regard to the control after a hyperosmotic stress (MTT),Keratinocytes; T48 h,+112%
same,properties shown by the gene expression study,[1],"proliferative, pro-differentiation and proteinogenic properties but also DNA repairing properties"
same,activation of the gene HK2 involved in the proliferation,[1]; 5×10E-3% or 5×10E-2%,marked activation
same,activation of the gene endothelin 1 involved in the cellular differentiation,[1]; 5×10E-3% or 5×10E-2%,marked activation
same,activity of the gene CACNA1C (subunit alpha 1 of the voltage-dependent calcium channel),[1]; 5×10E-3% or 5×10E-2%,increased activity
same,activity of the gene for RYR (ryanodine receptor),[1]; 5×10E-3% or 5×10E-2%,increased activity
same,"differentiation activities (ornithine decarboxylase, keratins, involucrin, intermediate filaments, claudin genes)",[1]; 5×10E-3% or 5×10E-2%,strongly expressed
same,gene TGD (thymidine DNA glycolase),[1]; 5×10E-3% or 5×10E-2%,activated
same,Keratinocyte proliferation vs. control cell proliferation,[2]; [3],223%
same,Keratinocyte proliferation vs. control cell proliferation,[2]; [4],170%
NCCCS(=O)(=O)O [3-aminopropanesulfonic acid],"Filaggrin synthesis, Change (%) vs control","filaggrin; Table 3, 14 days, 0.02%",0.8 X
same,"Filaggrin synthesis, Change (%) vs control","filaggrin; Table 3, 14 days, 0.05%",X 1
same,"Filaggrin synthesis, Change (%) vs control","filaggrin; Table 3, 14 days, 0.06%",0.8 X
same,"Filaggrin synthesis, Fluorescence",filaggrin; 0.02%,1.2 +/− 0.6 arbitrary unit
same,"Filaggrin synthesis, Fluorescence",filaggrin; 0.05%,1.5 +/− 0.7 arbitrary unit
same,"Filaggrin synthesis, Fluorescence",filaggrin; 0.06%,1.2 +/− 0.6 arbitrary unit
same,"differentiating effect, keratin 10",keratin K10,devoid of differentiating effect
same,"Synthesis of keratin 10, Fluorescence",keratin K10; 0.02%,0.1 +/− 0.05 arbitrary unit
same,"Synthesis of keratin 10, Fluorescence",keratin K10; 0.05%,<0.1 arbitrary unit
same,"Synthesis of keratin 10, Fluorescence",keratin K10; 0.06%,0.1 +/− 0.06 arbitrary unit
same,Variation of the number of cells with regard to the control after a hyperosmotic stress (MTT),Keratinocytes; T0,+8%
same,Variation of the number of cells with regard to the control after a hyperosmotic stress (MTT),Keratinocytes; T24 h,+180%
same,Variation of the number of cells with regard to the control after a hyperosmotic stress (MTT),Keratinocytes; T48 h,+247%
same,effect on cell proliferation,[2]; 0.02% and 0.05%,no stimulant effect
same,Keratinocyte proliferation vs. control cell proliferation,[2]; [3],0%
same,Keratinocyte proliferation vs. control cell proliferation,[2]; [4],0%
